Source: US9682114B2, “Plant extracts of Ptaeroxylon obliquum nand compounds having antimicrobial and antihelminthic activity” (UNIVERSITY OF PRETORIA, priority 2013, dated 2017)

## CC(=O)OCC1=CCc2c(cc(O)c3c(=O)cc(C)oc23)OC1 [Compound 2, 8,11-Dihydro-5-hydroxy-12-hydroxymethyl-2-methyl-4H-pyrano[2,3-g][1]benzoxepin-4-one 12-O-acetate]
Vero monkey kidney cells
  Cytotoxicity LC50: > 200 µg/mL
Human liver (C3A) cells
  Cytotoxicity LC50: > 200 µg/mL
